Values quoted from earlier work, collected in US11679123B2, “N-acylated hyaluronic acid for hyperuricemia and gouty arthritis” (Queen's University at Kingston, priority 2018, dated 2023).

Test system: stimulated human cultured macrophages
Conditions: THP-1, BHA of reduced molecular weight; cited from earlier work

Substance: N-butyrylated HA [BHA]
- production of pro-inflammatory cytokines (IL-1, IL-6, IL-8, TNF-α): decreased production of pro-inflammatory cytokines significantly
